Patent US9682940B2, “Indazole derivatives useful as CB-1 inverse agonists” (Janssen Pharmaceutica NV, priority 2015, dated 2017)

Key:
[1] = molecular target: Human CB2R (Cannabanoid receptor 2) (Homo sapiens (Human), UniProt P34972); assay: CB-2 in vitro cAMP (HTRF) assay in HEK-293 cells; format: cell-based; conditions: HEK-293 cells stably transfected with human CB2R, 250 nM Forskolin, mean where tested more than once, read-out: CB-2 (HEK_cAMP) EC50
Source text: (§1) CB1 and CB2 receptors are Gi-coupled GPCR. Activation of CB1 and CB2 receptors results in a decrease in cAMP production. An inverse agonist of the CB1 or CB2 receptor results in the opposite effect, an increase of cAMP production. The principle of this assay is based on HTRF® technology (Homogeneous Time-Resolved Fluorescence). The method is a competitive immunoassay between native cAMP produced by cells and the cAMP labeled with the fluorophore d2. The tracer binding is quantified by a Mab anti-cAMP labeled with Eu3+TBP-NHS Cryptate (supplied as part of the assay kit). The specific signal (i.e. energy transfer) is inversely proportional to the concentration of cAMP in the standard or sample.
(§2) Human CB1R (Cannabanoid receptor 1) was stably transfected in HEK-293 cells (DiscoveRx, cat: 93-0200C1). Human CB2R (Cannabanoid receptor 2) was stably transfected in HEK-293 cells (DiscoveRx, cat: 93-0201C1). Cell cultures were maintained in media: DMEM (Invitrogen Cat#12430-054) supplemented with 10% HI FBS (Invitrogen Cat#16140-071), 1% L-glutamine (Invitrogen Cat#25030-081), 0.2 mg/ml Hygromycin B (Invitrogen Cat#10687-010), 600 μg/mL G418 (Invitrogen Cat#10131-035), and 1× Penn/Strep (Invitrogen 15140-122). After cell expansion, aliquots were cryo-stored in media containing 5% DMSO (Pierce Cat#20684).
(§3) One day prior to experiments media was warmed to 37° C. and the cryo-stored cells were thawed in a 37° C. water bath. The cells were then added to media (10× volume) and the mixture was centrifugated at 1000 RPM for 5 min. The supernate was removed and the cells were re-suspended in media. A sample of the cell suspension was evaluated on a Cedex XS automated cell counter (Innovatis Systems) to determine viable cells/ml. Additional media was added to the cells to achieve a final cell density of 4E5 cells/mL. The cells were then plated into 384 well PDL white solid bottom plates (Greiner, Cat#781945) at 20 μL per well using a Multidrop (Thermo Scientific). Cells were removed from Row P (location of cAMP standards). Two columns of cells were plated into a clear bottom 384 well PDL coated plate (Greiner, Cat#781944) to view confluence the day of the assay. The cell plates were lidded and stored for 15 minutes in a hood, then transferred to an incubator (37° C., 5% CO2, 95% humidity) overnight.
(§4) DMSO was added to all wells of 384 well V bottom polystyrene plate (Greiner, Cat#781280) except to columns 1 and 13, rows O and P and wells M13-M23 and N13-N23. Test compounds (60 μL, 10 mM) were added to Column 1 and 13 (A1 through N1 and A13 through L13). Test compounds were serially diluted 1/3 by transferring and mixing 20 μl sample with 40 μL DMSO.
(§5) DMSO (40 μL) was added to wells of 384 well V bottom polystyrene plate: O2 through O11, M14 through M23, N14 through N23, and O14 through 023. AM630 (also known as [6-iodo-2-methyl-1-[2-(4-morpholinyl)ethyl]-1H-indol-3-yl](4-methoxyphenyl)-methanone, Cayman Chemical, Cat#10006974) (60 μL, 10 mM) was added to 01; and 1-(2,4-dichlorophenyl)-7-[(4-fluorophenyl)methylene]-4,5,6,7-tetrahydro-N-1-piperidinyl-1H-indazole-3-carboxamide (60 μL, 10 mM) was added to N13. The control was serially diluted 1/3 by transferring and mixing 20 μl sample with 40 μL DMSO. This process resulted 11 doses per control, 10 mM to […].
(§6) Cells plated the day prior to the assay in clear bottom plates were viewed on an inverse microscope to ensure confluency in the range of 60-75%. […]

[2] = molecular target: Human CB1R (Cannabanoid receptor 1) (Homo sapiens (Human), UniProt P21554); assay: CB-1 in vitro cAMP (HTRF) assay in HEK-293 cells; format: cell-based; conditions: HEK-293 cells stably transfected with human CB1R, 250 nM Forskolin, mean where tested more than once, read-out: CB-1 (HEK_cAMP) EC50
Human CB1R (Cannabanoid receptor 1), sequence (P21554 whole entry): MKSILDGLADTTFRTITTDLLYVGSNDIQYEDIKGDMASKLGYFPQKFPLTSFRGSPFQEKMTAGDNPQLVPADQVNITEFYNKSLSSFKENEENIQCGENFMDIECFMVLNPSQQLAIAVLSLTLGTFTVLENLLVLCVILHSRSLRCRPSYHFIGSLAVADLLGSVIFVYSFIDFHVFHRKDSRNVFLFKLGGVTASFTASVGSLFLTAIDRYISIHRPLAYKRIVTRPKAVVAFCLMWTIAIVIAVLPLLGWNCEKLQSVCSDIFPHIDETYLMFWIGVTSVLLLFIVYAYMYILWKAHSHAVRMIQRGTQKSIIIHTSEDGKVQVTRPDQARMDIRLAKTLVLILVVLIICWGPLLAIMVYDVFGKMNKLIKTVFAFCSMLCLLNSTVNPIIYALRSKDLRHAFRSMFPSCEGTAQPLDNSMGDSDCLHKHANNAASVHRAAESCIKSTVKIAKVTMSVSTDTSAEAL
Source text: as §1, §2, §3, §4, §5, §6

Human CB2R (Cannabanoid receptor 2), sequence (P34972 whole entry): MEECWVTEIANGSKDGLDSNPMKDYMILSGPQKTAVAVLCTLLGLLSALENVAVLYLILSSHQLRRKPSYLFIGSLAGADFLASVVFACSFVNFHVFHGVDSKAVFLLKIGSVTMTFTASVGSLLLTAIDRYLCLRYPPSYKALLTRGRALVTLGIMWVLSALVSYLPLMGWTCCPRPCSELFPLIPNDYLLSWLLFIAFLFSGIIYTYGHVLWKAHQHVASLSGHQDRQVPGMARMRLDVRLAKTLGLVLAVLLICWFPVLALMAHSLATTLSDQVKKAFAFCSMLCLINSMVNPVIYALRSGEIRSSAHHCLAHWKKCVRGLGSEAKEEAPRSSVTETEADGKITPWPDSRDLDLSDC

Row | EC50 [1] [µM] | EC50 [2] [µM] | SMILES
1 | > 10 | 0.008 | O=S(=O)(N1CCC(c2nn(C3CC3)c3ccc(C(c4ccc(Cl)cc4)c4ccc(Cl)cc4)cc23)CC1)C(F)(F)F [Compound 105]
2 | > 10 | 0.037 | O=C(CCO)N1CCC(c2nn(C3CC3)c3ccc(C(c4ccc(Cl)cc4)c4ccc(Cl)cc4)cc23)CC1 [Compound 108]
3 | > 10 | 0.062 | NC(=O)c1cccc(C(=O)N2CCC(c3c4cc(C(c5ccc(Cl)cc5)c5ccc(Cl)cc5)ccc4nn3C3CC3)CC2)c1 [Compound 112]
4 | 9.9 | 0.283 | NC(=O)c1ccc(C(=O)N2CCC(c3c4cc(C(c5ccc(Cl)cc5)c5ccc(Cl)cc5)ccc4nn3C3CC3)CC2)cc1 [Compound 114]
5 | 1.55 | 0.009 | O=C(O)c1ccc(S(=O)(=O)N2CCC(c3c4cc(C(c5ccc(Cl)cc5)c5ccc(Cl)cc5)ccc4nn3C3CC3)CC2)cc1 [Compound 117, 4-(4-(5-(bis(4-chlorophenyl)methyl)-2-cyclopropyl-2H-indazol-3-yl)piperidin-1-ylsulfonyl)benzoic acid]
6 | > 10 | 0.144 | COc1ccc(S(=O)(=O)N2CCC(Nc3n[nH]c4ccc(C(c5ccc(Cl)cc5)c5ccc(Cl)cc5)cc34)CC2)cc1 [Compound 119]
7 | > 10 | 0.05 | NC(=O)c1ccc(S(=O)(=O)N2CCC(Nc3n[nH]c4ccc(C(c5ccc(Cl)cc5)c5ccc(Cl)cc5)cc34)CC2)cc1 [Compound 120]
8 | > 10 | 0.099 | NC(=O)c1cccc(S(=O)(=O)N2CCC(Nc3n[nH]c4ccc(C(c5ccc(Cl)cc5)c5ccc(Cl)cc5)cc34)CC2)c1 [Compound 122]
9 | > 10 | 0.236 | NC(=O)c1ccccc1C(=O)N1CCC(c2c3cc(C(c4ccc(Cl)cc4)c4ccc(Cl)cc4)ccc3nn2C2CC2)CC1 [Compound 124]
10 | > 10 | 0.617 | O=C(O)C(=O)N1CCC(c2c3cc(C(c4ccc(Cl)cc4)c4ccc(Cl)cc4)ccc3nn2C2CC2)CC1 [Compound 126]
11 | > 10 | 4.76 | O=C(O)CCC(=O)N1CCC(c2c3cc(C(c4ccc(Cl)cc4)c4ccc(Cl)cc4)ccc3nn2C2CC2)CC1 [Compound 127]
12 | > 10 | 0.203 | O=C(O)c1ccc(S(=O)(=O)N2CCC(Nc3n[nH]c4ccc(C(c5ccc(Cl)cc5)c5ccc(Cl)cc5)cc34)CC2)cc1 [Compound 129]
13 | > 10 | 0.166 | O=C(CCO)N1CCC(c2c3cc(C(c4ccc(Cl)cc4)c4ccc(Cl)cc4)ccc3nn2C2CC2)CC1 [Compound 132]
14 | > 10 | 3.91 | O=C(O)CCS(=O)(=O)N1CCC(c2c3cc(C(c4ccc(Cl)cc4)c4ccc(Cl)cc4)ccc3nn2C2CC2)CC1 [Compound 133]
15 | > 10 | 0.158 | NC(=O)CS(=O)(=O)N1CCC(c2c3cc(C(c4ccc(Cl)cc4)c4ccc(Cl)cc4)ccc3nn2C2CC2)CC1 [Compound 137]
16 | > 10 | 0.202 | NC(=O)c1ccccc1S(=O)(=O)N1CCC(c2c3cc(C(c4ccc(Cl)cc4)c4ccc(Cl)cc4)ccc3nn2C2CC2)CC1 [Compound 139]

The remaining lines, values behind:

Row | SMILES | EC50 [1] [µM] | EC50 [2] [µM]
17 | NC(=O)c1ccc(C(=O)N2CCC(c3nn(C4CC4)c4ccc(C(c5ccc(Cl)cc5)c5ccc(Cl)cc5)cc34)CC2)cc1 [Compound 104] | > 10 | 0.007
18 | O=C(O)CCS(=O)(=O)N1CCC(c2nn(C3CC3)c3ccc(C(c4ccc(Cl)cc4)c4ccc(Cl)cc4)cc23)CC1 [Compound 106] | > 10 | 9.2
19 | O=C(O)CCC(=O)N1CCC(c2nn(C3CC3)c3ccc(C(c4ccc(Cl)cc4)c4ccc(Cl)cc4)cc23)CC1 [Compound 107] | > 10 | 0.92
20 | O=C(O)CCS(=O)(=O)N1CCC(c2nn(C3CC3)c3ccc(C(c4ccc(Cl)cc4)c4ccc(Cl)cc4)cc23)CC1 [Compound 109] | > 10 | 0.729
21 | O=C(CO)N1CCC(c2c3cc(C(c4ccc(Cl)cc4)c4ccc(Cl)cc4)ccc3nn2C2CC2)CC1 [Compound 110] | > 10 | 0.134
22 | O=C(O)c1cccc(C(=O)N2CCC(c3c4cc(C(c5ccc(Cl)cc5)c5ccc(Cl)cc5)ccc4nn3C3CC3)CC2)c1 [Compound 111] | > 10 | 3.5
23 | O=C(O)c1ccc(C(=O)N2CCC(c3c4cc(C(c5ccc(Cl)cc5)c5ccc(Cl)cc5)ccc4nn3C3CC3)CC2)cc1 [Compound 113] | > 10 | 4.24
24 | NC(=O)CS(=O)(=O)N1CCC(c2nn(C3CC3)c3ccc(C(c4ccc(Cl)cc4)c4ccc(Cl)cc4)cc23)CC1 [Compound 115] | > 10 | 1.01
25 | O=C(O)c1cccc(S(=O)(=O)N2CCC(c3c4cc(C(c5ccc(Cl)cc5)c5ccc(Cl)cc5)ccc4nn3C3CC3)CC2)c1 [Compound 116, 3-(4-(5-(bis(4-chlorophenyl)methyl)-2-cyclopropyl-2H-indazol-3-yl)piperidin-1-ylsulfonyl)benzoic acid] | 7.99 | 0.005
26 | NC(=O)c1ccc(S(=O)(=O)N2CCC(c3c4cc(C(c5ccc(Cl)cc5)c5ccc(Cl)cc5)ccc4nn3C3CC3)CC2)cc1 [Compound 118, 4-(4-(5-(bis(4-chlorophenyl)methyl)-2-cyclopropyl-2H-indazol-3-yl)piperidin-1-ylsulfonyl)benzamide] | > 10 | 0.004
27 | NC(=O)c1ccccc1S(=O)(=O)N1CCC(Nc2n[nH]c3ccc(C(c4ccc(Cl)cc4)c4ccc(Cl)cc4)cc23)CC1 [Compound 121] | > 10 | 0.375
28 | O=C(O)c1ccccc1S(=O)(=O)N1CCC(c2c3cc(C(c4ccc(Cl)cc4)c4ccc(Cl)cc4)ccc3nn2C2CC2)CC1 [Compound 123] | > 10 | 5.8
29 | CS(=O)(=O)N1CCC(Nc2n[nH]c3ccc(C(c4ccc(Cl)cc4)c4ccc(Cl)cc4)cc23)CC1 [Compound 125] | > 10 | 0.135
30 | O=C(O)c1cccc(S(=O)(=O)N2CCC(Nc3n[nH]c4ccc(C(c5ccc(Cl)cc5)c5ccc(Cl)cc5)cc34)CC2)c1 [Compound 128] | > 10 | 1.23
31 | O=S(=O)(c1ccc(O)cc1)N1CCC(Nc2n[nH]c3ccc(C(c4ccc(Cl)cc4)c4ccc(Cl)cc4)cc23)CC1 [Compound 130] | > 10 | 0.015
32 | O=C(O)CS(=O)(=O)N1CCC(c2c3cc(C(c4ccc(Cl)cc4)c4ccc(Cl)cc4)ccc3nn2C2CC2)CC1 [Compound 131] | > 10 | 9.5
33 | NC(=O)CCS(=O)(=O)N1CCC(c2c3cc(C(c4ccc(Cl)cc4)c4ccc(Cl)cc4)ccc3nn2C2CC2)CC1 [Compound 134] | > 10 | 0.216
34 | O=C(O)CCC(=O)N1CCC(c2c3cc(C(c4ccc(Cl)cc4)c4ccc(Cl)cc4)ccc3nn2C2CC2)CC1 [Compound 135] | > 10 | 0.166
35 | O=S(=O)(N1CCC(c2c3cc(C(c4ccc(Cl)cc4)c4ccc(Cl)cc4)ccc3nn2C2CC2)CC1)C(F)(F)F [Compound 136, 5-(bis(4-chlorophenyl)methyl)-2-cyclopropyl-3-(1-(trifluoromethylsulfonyl)piperidin-4-yl)-2H-indazole] | > 10 | 0.011
36 | NC(=O)C(=O)N1CCC(c2c3cc(C(c4ccc(Cl)cc4)c4ccc(Cl)cc4)ccc3nn2C2CC2)CC1 [Compound 138] | > 10 | 0.587
